Common to all, as to conditions: incubation time: 72 h
The subject of one test is CAL-148. Kind of test: normalised viability (% of control), CellTiter-Blue; higher = more viable cells (about 100 = DMSO control). Here is the method:
(§1)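 DSRT, CellTiter-Blue viability, 72 h incubation. Signal is normalised to DMSO and benzethonium chloride controls. Value is the normalised response at dose 7.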
Background: The colour change of resazurin is a common sign of viable cells or microbes.

In another test the test system is CAL-51. The description is as above. On the procedure: as §1
Another test concerns CAL-85-1. The description is as above. Here is the method: as §1
The test system of the next test is DU-4475. Described as above. Here is the method:
as §1

A further test relates to HDQ-P1. Described as above. On the procedure: as §1
The subject of a further test is MDA-MB-453. Described as above. On the procedure: as §1
Another test concerns HCC1937. Put plainly: normalised response (% of control), CellTiter-Glo; higher = more viable cells (100 = DMSO, 0 = benzethonium chloride kill control). Summed up:
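Normalised signals at single concentrations make up the values. They come from breast cancer cell lines seeded (20 µl suspension) into 384-well plates with compound at 5 concentrations in 10-fold steps over a compound-specific 10,000-fold range, incubated 72 h, and read for CellTox Green fluorescence then CellTiter-Glo luminescence. Each plate was normalised to 0.1 % DMSO (100) and a positive kill control (0).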
For orientation: ATP-based viability assays read luminescence as a measure of living cells.

On to `CN1CCN(c2nc(C3=C(c4c[nH]c5ccccc45)C(=O)NC3=O)c3ccccc3n2)CC1` [Sotrastaurin] (1000 nM), for which the normalised viability in the test with CAL-148 turned out to be 111%; in the test with CAL-51, 74.3%; in the test on CAL-85-1, 124%; in the test on DU-4475, 95.8%; with HDQ-P1 it was 100%; in the test with MDA-MB-453, 89.7%. In addition, in the test on HCC1937, the normalised response amounted to 96%.
`CC/C(=C(\c1ccccc1)c1ccc(OCCN(C)C)cc1)c1ccccc1` [Tamoxifen] (1000 nM): the normalised viability in the test on CAL-148 is 124%; with CAL-51 it was 78.4%; in the test on CAL-85-1, 101%; in the test on DU-4475, 112%; in the test on HDQ-P1, 98.7%; in the test on MDA-MB-453, 105%. The compound further returned a normalised response in the test on HCC1937 of 102%.
With `COc1cc2c(N3CCN(C(=O)Nc4ccc(OC(C)C)cc4)CC3)ncnc2cc1OCCCN1CCCCC1` [Tandutinib] (100 nM), the normalised viability in the test on CAL-148 amounted to 101%; with CAL-51 it was 107%; with CAL-85-1, 100%; in the test with DU-4475 it was 117%; with HDQ-P1, 112%; with MDA-MB-453, 97.6%. For the same compound, the normalised response with HCC1937 was found to be 100%.
Take `C[C@@H](C(=O)O)c1ccc(-c2ccccc2)c(F)c1` [Tarenflurbil] (1000 nM): the normalised viability in the test with CAL-148 amounted to 92.5%; in the test on CAL-51, 109%; with CAL-85-1, 90%; in the test on DU-4475, 108%; in the test with HDQ-P1 it was 83.2%; with MDA-MB-453 it was 87.7%. In the test with HCC1937, this compound yielded a normalised response of 94.7%.
Regarding `Cn1nnc2c(C(N)=O)ncn2c1=O` [Temozolomide] (1000 nM), the normalised viability was found to be 113% with CAL-148; 89.7% in the test with CAL-51; 104% in the test with CAL-85-1; 101% in the test on DU-4475; 100% in the test with HDQ-P1; 93.6% in the test on MDA-MB-453. This compound returned a normalised response with HCC1937 of 93.9%.
As to `CC[C@@H]1C(=O)N(C)c2cnc(Nc3ccc(C(=O)N[C@H]4CC[C@H](N5CCN(CC6CC6)CC5)CC4)cc3OC)nc2N1C(C)C` [Volasertib] (100 nM), the normalised viability in the test on CAL-148 is 23.4%; with CAL-51, 15.7%; in the test with CAL-85-1, 42%; with DU-4475 it was 21%; with HDQ-P1 it was 51.7%; with MDA-MB-453 it was 24.5%. Besides, the normalised response in the test on HCC1937 turned out to be 81%.

These data come from the supplement of paper PMC4862054.
